{
  "source": "paper PMC6646369",
  "about": "“A new bioavailable fenretinide formulation with antiproliferative, antimetabolic, and cytotoxic effects on solid tumors” (Cell Death & Disease, 2019)",
  "type_in_all_cases": "cell-based, human",
  "key": {"[1]": {"system": "LCSC6 lung cancer spheroid cells", "assay": "Cell viability assay (CellTiter-Glo)", "procedure": "(§1) Briefly, lung and colorectal spheroids were dissociated mechanically or with TrypLE Express (Thermo Fisher Scientific) respectively and seeded 3 × 10^3 per well in 96-well plates (three replicates per experimental point) in serum-free medium, and incubated in a humidified atmosphere at 37 °C, 5% CO2. Cells were treated with the respective compounds and analysed after the appropriate time period as described in detail in Figure Legends. Luminescence was detected with a DTX880 multimode microplate reader (Beckman Coulter, Brea, CA, USA)."}, "[2]": {"system": "CSC 7 colorectal spheroid cells", "assay": "Cell viability assay (CellTiter-Glo)", "procedure": "as §1, with “Cell viability upon treatment with NanoFEN, zVAD, NAC, 3-MA, Myriocin, PPMP, GT11, SA and Rapamycin was determined by CellTiter-Glo luminescent cell viability assay (Promega, Madison, WI, USA) according to the manufacturer’s directions. Briefly,” for “Briefly,”"}, "[3]": {"system": "Aldefluor activity (ALDH) in LCSC6", "assay": "Cytofluorimetric analysis of Aldefluor activity", "settings": "LCSC6, representative analysis; NanoFEN at IC50 dose, Gemcytabine 25 µM; CTRL 38,6%", "procedure": "Values represent mean ± SD of three independent experiments. **P < 0.01; ***P < 0.001 from two-tailed t-test. d Schematic representation of stem-like factors (repressed in grey) emerged from RPPA analysis of lung CSCs treated as described in Fig. 4a. e Cytofluorimetric analysis of Aldefluor activity on LCSC6 treated with NanoFEN at IC50 dose and Gemcytabine 25 μM for 48 h. Values represent mean ± SD of three independent experiments. **P < 0.01; ***P < 0.001 from two-tailed t-test. f qRT-PCR analysis of indicated genes on whole tumor lysates derived from LCSC6 xenografts, untreated or treated with NanoFEN 30 mg/Kg/week and Cis 3 mg/Kg/week and Gem 60 mg/Kg/week (Cis + Gem). Values represent mean ± SD of three independent experiments. *P < 0.05; **P < 0.01 from two-tailed t-test. g Flow cytometry analysis of TOP-GFP.mc-transduced CSC7, untreated and treated with NanoFEN at the IC50 dose 0.2 μM and OXA 10 μM for 48 h. Values represent mean ± SD of three independent experiments. **P < 0.01 from two-tailed t-test. h Volume of xenografts derived from CSC10 transduced with TOP-GFP.mc untreated (black downward triangles) or treated with vehicle or treated NanoFEN 30 mg/Kg/week (green upward triangles) and OXA 5 mg/Kg/week plus 5FU 12.5 mg/Kg/week (red squares). […]"}, "[4]": {"system": "reactive oxygen species (ROS) in LCSC6", "assay": "Measurement of intracellular ROS levels (CM-H2DCFDA, flow cytometer)", "settings": "LCSC6, NAC 2mM for 1h, then NanoFEN 4,9µM for 48 hours", "procedure": "An equal number of dissociated spheroid cells (2.5 × 10^5) were seeded in 6-well cell culture plates. Briefly, each cell line was incubated with NanoFEN at IC50 concentration and pre-treated for 1 h with the antioxidant N-Acetyl-Cysteine (NAC). At different times, the cells were washed twice with pre-warmed Phosphate Saline Buffer (PBS) and then incubated in the same buffer containing 5 μM CM-H2DCFDA with DMSO alone at 37 °C. The fluorescence intensity of DCF was measured at 527 nm emission wavelength after excitation at 492 nm at 1 h intervals for up to 48 h using a Flow Cytometer Accuri (Becton Dickinson). An increase in fluorescence intensity as arbitrary units indicated the net generation of intracellular ROS."}, "[5]": {"system": "LCSC2 lung cancer spheroid cells", "assay": "Cell viability assay (CellTiter-Glo)", "settings": "LCSC2, GT11 0,5µM plus SA 2µM plus Rapamycin 10nM, 48 hours", "procedure": "as §1, with “Cell viability upon treatment with NanoFEN, zVAD, NAC, 3-MA, Myriocin, PPMP, GT11, SA and Rapamycin was determined by CellTiter-Glo luminescent cell viability assay (Promega, Madison, WI, USA) according to the manufacturer’s directions. Briefly,” for “Briefly,”"}},
  "data": [
    {"compound": "COC(=O)C[C@H](NC(=O)[C@H](C)NC(=O)[C@@H](NC(=O)OCc1ccccc1)C(C)C)C(=O)CF", "note": "(racemic) [zVAD-fmk, z-Val-Ala-DL-Asp-fluoromethylketone]", "values": [
      {"measurement": "effect on NanoFEN-induced toxicity (cell viability)", "setting": "[1]; LCSC6 pretreated with zVAD 40 μΜ, then NanoFEN 4.9 μM, 48 h", "value": "did not substantially inhibit"},
      {"measurement": "effect on NanoFEN-induced toxicity (cell viability)", "setting": "[2]; CSC7 pretreated with zVAD 40 μΜ, then NanoFEN 0.2 μM, 48 h", "value": "did not substantially inhibit"}
    ]},
    {"compound": "Cn1cnc(N)c2ncnc1-2", "note": "[3-MA, 3-Methyladenine]", "values": [
      {"measurement": "effect on NanoFEN-induced death (cell viability)", "setting": "[1]; LCSC6, 3-MA 5 mM plus NanoFEN 4.9 μM, 24 h", "value": "able to counteract"},
      {"measurement": "effect on NanoFEN-induced death (cell viability)", "setting": "[2]; CSC7, 3-MA 5 mM plus NanoFEN 0.2 μM, 24 h", "value": "able to counteract"}
    ]},
    {"compound": "Nc1ccn([C@@H]2O[C@H](CO)[C@@H](O)C2(F)F)c(=O)n1", "note": "[Gem, gemcitabine]", "values": [
      {"measurement": "ALDH+", "setting": "[3]", "value": "74,6%"}
    ]},
    {"compound": "CC(=O)N[C@@H](CS)C(=O)O", "note": "[NAC, N-Acetyl-L-Cysteine]", "values": [
      {"measurement": "effect on NanoFEN-induced death (cell viability)", "setting": "[1]; LCSC6 pretreated with NAC 2 mM for 1 h, then NanoFEN 4.9 μM, 48 h", "value": "partially rescued"},
      {"measurement": "effect on NanoFEN-induced death (cell viability)", "setting": "[2]; CSC7 pretreated with NAC 2 mM for 1 h, then NanoFEN 0.2 μM, 48 h", "value": "partially rescued"},
      {"measurement": "ROS levels in NanoFEN-treated cells after pretreatment", "setting": "[4]", "value": "reduced"}
    ]},
    {"compound": "CCCCCCCCCCCCCCCC(=O)NC(CN1CCOCC1)C(O)c1ccccc1", "note": "(stereo not shown) [PPMP, 1-phenyl-2-palmitoylamino-3-morpholino-1-propanol]", "values": [
      {"measurement": "effect on NanoFEN-induced death (cell viability)", "setting": "[1]; LCSC6, PPMP 10 μM plus NanoFEN 4.9 μM, 48 h", "value": "unable to block"},
      {"measurement": "effect on NanoFEN-induced death (cell viability)", "setting": "[2]; CSC7, PPMP 10 μM plus NanoFEN 0.2 μM, 48 h", "value": "unable to block"}
    ]},
    {"compound": "CCCCCCCCCCCCCCC[C@@H](O)[C@@H](N)CO", "note": "[SA, sphinganine]", "values": [
      {"measurement": "cell viability", "setting": "[1]; LCSC6, 48 hours, SA 2, 4, 6 µM, GT11 0,5, 2, 5 µM", "value": "dose-dependent viability decrease"}
    ]},
    {"compound": "CCCCCCC(=O)CCCCCC/C=C/C[C@@H](O)[C@H](O)[C@@](N)(CO)C(=O)O", "note": "[myriocin]", "values": [
      {"measurement": "effect on NanoFEN-induced death (cell viability)", "setting": "[1]; LCSC6, Myriocin 1 μM plus NanoFEN 4.9 μM, 48 h", "value": "partially protected"},
      {"measurement": "effect on NanoFEN-induced death (cell viability)", "setting": "[2]; CSC7, Myriocin 1 μM plus NanoFEN 0.2 μM, 48 h", "value": "partially protected"}
    ]},
    {"compound": "CO[C@H]1C[C@@H]2CC[C@@H](C)[C@@](O)(O2)C(=O)C(=O)N2CCCC[C@H]2C(=O)O[C@H]([C@H](C)C[C@@H]2CC[C@@H](O)[C@H](OC)C2)CC(=O)[C@H](C)/C=C(\\C)[C@@H](O)[C@@H](OC)C(=O)[C@H](C)C[C@H](C)/C=C/C=C/C=C/1C", "note": "[rapamycin]", "values": [
      {"measurement": "effect on the toxic effects of the SA/GT11 combination (cell viability)", "setting": "[1]; LCSC6, GT11 0.5 μM plus SA 2 μM plus Rapamycin 10 nM, 48 h", "value": "significantly potentiated"},
      {"measurement": "effect on the toxic effects of the SA/GT11 combination (cell viability)", "setting": "[2]; CSC7, GT11 0.5 μM plus SA 2 μM plus Rapamycin 10 nM, 48 h", "value": "significantly potentiated"},
      {"measurement": "effect on the toxic effects of the SA/GT11 combination (cell viability)", "setting": "[5]", "value": "significantly potentiated"}
    ]}
  ]
}
